The text below walks through data of paper PMC4554999 (Bioorganic & medicinal chemistry, 2015).

The structures appear in SMILES notation. Where two headings read alike, the source gives them in different places.

In assay [1] the test system is nicotine-induced antinociception. In words: Antagonism of nicotine-induced antinociception, tail-flick test. In kind it is in vivo, mouse. As to conditions: mice. In general terms: In hot-plate and tail-flick tests a longer latency is read as antinociception.
For assay [2], the target named is T1, rat α7-nAChR (Rattus norvegicus, UniProt Q05941). In words: cell-based. As to conditions: read-out: antagonist activity at α7-nAChRs, % inhibition.
T1 sequence (Q05941 23-502): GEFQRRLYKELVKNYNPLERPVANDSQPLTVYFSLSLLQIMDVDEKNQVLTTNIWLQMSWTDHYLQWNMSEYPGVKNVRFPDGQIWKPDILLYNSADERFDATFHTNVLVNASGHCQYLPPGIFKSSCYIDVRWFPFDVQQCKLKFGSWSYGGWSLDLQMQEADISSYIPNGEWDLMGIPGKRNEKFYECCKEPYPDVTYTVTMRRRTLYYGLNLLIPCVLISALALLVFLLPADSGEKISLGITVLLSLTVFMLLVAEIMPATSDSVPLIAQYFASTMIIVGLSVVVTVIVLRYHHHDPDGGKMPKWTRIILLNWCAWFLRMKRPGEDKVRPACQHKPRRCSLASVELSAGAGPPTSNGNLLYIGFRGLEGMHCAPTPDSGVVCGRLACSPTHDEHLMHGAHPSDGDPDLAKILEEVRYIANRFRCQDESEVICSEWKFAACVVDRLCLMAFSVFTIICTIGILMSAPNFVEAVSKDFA
The target of assay [3] is T1, rat α7-nAChR. In kind it is cell-based.
Another assay concerns the target rat α3β4-nAChR (Rattus norvegicus, UniProt P04757+P12392). Briefly: Electrophysiology. The assay is classed as cell-based. As to conditions: 100 μM compound; rat receptor in Xenopus oocytes.
Assay [4] concerns mice. As to conditions: agonist antinociception, ref [5]; cited from earlier work.
Assay [5] has as its system mice. Conditions: ref [5]; cited from earlier work.
Assay [6] relates to mice. As to conditions: agonist antinociception, ref [5]; cited from earlier work. The source holds these as a separate data set.
Assay [7] concerns mice. As to conditions: Table 1, head line above prints AD50 (μg/kg), ref [5]; cited from earlier work.
The target in the next assay is α4β2*-nAChRs (Rattus norvegicus, UniProt P09483+P12390). Briefly: biochemical. In kind it is binding.
Sequence of α4β2*-nAChRs (P09483 31-630): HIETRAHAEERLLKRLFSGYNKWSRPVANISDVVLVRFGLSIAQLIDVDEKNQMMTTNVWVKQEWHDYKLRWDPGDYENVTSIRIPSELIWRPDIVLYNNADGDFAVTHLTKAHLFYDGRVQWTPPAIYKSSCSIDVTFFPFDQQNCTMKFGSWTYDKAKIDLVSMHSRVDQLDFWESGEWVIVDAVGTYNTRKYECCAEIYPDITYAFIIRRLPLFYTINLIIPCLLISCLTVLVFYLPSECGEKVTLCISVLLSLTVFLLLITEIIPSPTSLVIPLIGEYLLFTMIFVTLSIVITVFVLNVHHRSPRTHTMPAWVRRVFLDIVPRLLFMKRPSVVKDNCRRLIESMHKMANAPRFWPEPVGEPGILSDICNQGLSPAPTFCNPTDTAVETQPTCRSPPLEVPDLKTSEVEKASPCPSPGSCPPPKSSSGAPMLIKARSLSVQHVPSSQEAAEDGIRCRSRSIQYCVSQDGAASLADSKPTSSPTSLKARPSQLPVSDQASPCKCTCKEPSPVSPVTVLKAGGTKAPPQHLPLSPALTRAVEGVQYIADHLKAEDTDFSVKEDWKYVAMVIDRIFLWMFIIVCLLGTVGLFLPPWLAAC
Sequence of α4β2*-nAChRs (P12390 25-500): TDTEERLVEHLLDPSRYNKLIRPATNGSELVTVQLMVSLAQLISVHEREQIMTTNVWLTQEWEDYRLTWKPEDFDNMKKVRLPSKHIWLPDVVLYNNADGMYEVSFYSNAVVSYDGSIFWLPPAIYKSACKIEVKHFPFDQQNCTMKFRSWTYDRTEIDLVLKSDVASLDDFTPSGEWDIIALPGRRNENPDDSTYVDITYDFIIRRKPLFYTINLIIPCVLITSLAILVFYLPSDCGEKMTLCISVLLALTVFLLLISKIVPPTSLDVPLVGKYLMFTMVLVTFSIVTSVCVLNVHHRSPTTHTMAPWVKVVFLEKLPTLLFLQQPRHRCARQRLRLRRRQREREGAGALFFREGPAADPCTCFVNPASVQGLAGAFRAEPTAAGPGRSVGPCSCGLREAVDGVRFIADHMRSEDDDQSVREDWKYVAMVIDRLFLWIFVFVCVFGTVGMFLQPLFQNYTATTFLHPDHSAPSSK

Sequence of rat α3β4-nAChR (P04757 26-499): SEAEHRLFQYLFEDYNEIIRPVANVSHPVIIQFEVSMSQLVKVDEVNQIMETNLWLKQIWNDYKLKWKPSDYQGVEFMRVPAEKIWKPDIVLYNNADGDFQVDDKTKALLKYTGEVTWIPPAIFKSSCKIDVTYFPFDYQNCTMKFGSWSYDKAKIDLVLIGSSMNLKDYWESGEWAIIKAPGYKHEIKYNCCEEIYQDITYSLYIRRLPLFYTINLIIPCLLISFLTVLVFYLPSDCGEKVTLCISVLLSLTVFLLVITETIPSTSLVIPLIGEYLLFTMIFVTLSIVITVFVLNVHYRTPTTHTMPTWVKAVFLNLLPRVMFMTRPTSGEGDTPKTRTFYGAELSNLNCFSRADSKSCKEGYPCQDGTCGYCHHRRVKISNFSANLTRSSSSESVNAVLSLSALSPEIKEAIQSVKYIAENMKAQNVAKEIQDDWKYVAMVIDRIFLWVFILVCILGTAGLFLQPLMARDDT
Sequence of rat α3β4-nAChR (P12392 21-495): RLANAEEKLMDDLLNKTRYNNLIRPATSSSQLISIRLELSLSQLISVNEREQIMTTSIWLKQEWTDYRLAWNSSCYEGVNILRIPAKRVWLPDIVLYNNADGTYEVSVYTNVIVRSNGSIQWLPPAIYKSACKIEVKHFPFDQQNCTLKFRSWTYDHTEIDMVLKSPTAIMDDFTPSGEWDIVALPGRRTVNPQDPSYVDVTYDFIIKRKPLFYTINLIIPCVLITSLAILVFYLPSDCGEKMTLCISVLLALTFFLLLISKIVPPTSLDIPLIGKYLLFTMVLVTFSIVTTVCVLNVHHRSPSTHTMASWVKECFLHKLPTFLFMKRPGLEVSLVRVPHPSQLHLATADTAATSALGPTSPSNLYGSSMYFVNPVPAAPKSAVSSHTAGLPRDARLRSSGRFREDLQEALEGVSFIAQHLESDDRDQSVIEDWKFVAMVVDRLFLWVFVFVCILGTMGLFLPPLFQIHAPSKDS

Turning to `Clc1cc(-c2cncc([C@H]3C[C@H]4CC[C@H]3N4)c2)ccn1` [Compound 5c, 2-exo-[3′-(2-Chloropyridin-4-yl)-5′-pyridnyl]-7-azabicyclo[2.2.1]heptane], the “AD50 Tail-Flick” value in [1] is 110 (20–645) μg/kg.
For orientation: inhibition means the percentage by which the read-out fell short of the control. Regarding `COc1ccc(-c2cncc([C@H]3C[C@H]4CC[C@H]3N4)c2)cn1` [Compound 6e, 2-exo-[3′-(2″-Methoxypyridin-5″-yl)-5′-pyridnyl]-7-azabicyclo[2.2.1]heptane], at rat α7-nAChR [2], the inhibition at 100 µM was > 80%. In addition, the “AD50 Tail-Flick” value in assay [1] is recorded as 0.5 (0.05–4.7) μg/kg. In addition, at rat α7-nAChR [3] (100 μM compound, rat receptor in Xenopus oocytes), the “Agonist Activity (% of max ACh at 100 μM) α7” value is reported as “little or no agonist activity”.
On to `COc1cc(-c2cncc([C@H]3C[C@H]4CC[C@H]3N4)c2)ccn1` [Compound 5e, 2-exo-[3′-(2-Methoxypyridin-4-yl)-5′-pyridnyl]-7-azabicyclo[2.2.1]heptane], for which the “AD50 Tail-Flick” value in [1] was 0.3 (0.04–20) μg/kg.
As for `Nc1cc(-c2cncc([C@H]3C[C@H]4CC[C@H]3N4)c2)ccn1` [Compound 5d, 2-exo-[3′-(2-Aminopyridin-4-yl)-5′-pyridnyl]-7-azabicyclo[2.2.1]heptane], the “AD50 Tail-Flick” value in [1] was 1 (0.13–1.4) μg/kg. In addition, the “Agonist Activity (% of max ACh at 100 μM) α3β4” value at rat α3β4-nAChR is listed as “little or no agonist activity”.
With `CN1CCC[C@H]1c1cccnc1` [nicotine], in the assay with mice [4], the “ED50 Tail-Flick” value is reported as 1.3 (0.5–1.8) mg/kg. Also, the “ED50 Hypothermia” value with mice [5] is reported as 1.0 (0.6–2.1) mg/kg. In the assay with mice [6], the “ED50 Hot-Plate” value is 0.65 (0.25–0.85) mg/kg. In addition, the “ED50 Spontaneous Activity” value in the assay on mice [7] is 0.5 (0.15–0.78) μg/kg.
In general, Ki refers to a measure of affinity in units of concentration, obtained from inhibition or displacement. High values mean a looser hold on the target, low ones a stronger hold on the target. Take `c1cncc(-c2cncc([C@H]3C[C@H]4CC[C@H]3N4)c2)c1` [Compound 6a, 2-exo-[3′-(Pyridin-3″-yl)-5′-pyridnyl]-7-azabicyclo[2.2.1]heptane]: at α4β2*-nAChRs, the affinity corresponds to a Ki of 0.12 nM. The “AD50 Tail-Flick” value in assay [1] was 0.68 (0.11–4) μg/kg.
Take `c1cc(-c2cncc([C@H]3C[C@H]4CC[C@H]3N4)c2)ccn1` [Compound 5a, 2-exo-[3′-(Pyridin-4-yl)-5′-pyridnyl]-7-azabicyclo[2.2.1]heptane]: in assay [1], the “AD50 Tail-Flick” value was 39 (4–63) μg/kg.
In the case of `Nc1ccc(-c2cncc([C@H]3C[C@H]4CC[C@H]3N4)c2)cn1` [Compound 6d, 2-exo-[3′-(2″-Aminopyridin-5″-yl)-5′-pyridnyl]-7-azabicyclo[2.2.1]heptane], the “AD50 Tail-Flick” value in assay [1] is recorded as 1.5 (0.5–4.1) μg/kg. On rat α3β4-nAChR, the “Agonist Activity (% of max ACh at 100 μM) α3β4” value is reported as “little or no agonist activity”.
For `Clc1ccc(-c2cncc([C@H]3C[C@H]4CC[C@H]3N4)c2)cn1` [Compound 6c, 2-exo-[3′-(2″-Chloropyridin-5″-yl)-5′-pyridnyl]-7-azabicyclo[2.2.1]heptane], in assay [1], the “AD50 Tail-Flick” value is listed as 0.5 (0.05–4.7) μg/kg.
On to `Fc1ccc(-c2cncc([C@H]3C[C@H]4CC[C@H]3N4)c2)cn1` [Compound 6b, 2-exo-[3′-(2″-Fluoropyridin-5″-yl)-5′-pyridnyl]-7-azabicyclo[2.2.1]heptane], for which the “Agonist Activity (% of max ACh at 100 μM) α7” value at rat α7-nAChR [3] is given as “little or no agonist activity”.
